Activity calls are given as the source filed them. The rule behind the calls is not given here.

The subject of data set [1] is BHK-21. The experiment in a line: Cytotoxicity against MRP1-expressing BHK21 cells assessed as growth inhibition at 20 uM after 72 hrs by MTT assay. In kind it is functional. The settings on record: Mesocricetus auratus; for inhibition of growth at 20 µM: BHK-21, 72 h, read-out: GI.
Data set [2] concerns BHK-21. Briefly: Cytotoxicity against wild type BHK21 cells assessed as reduction in cell viability at 20 uM after 72 hrs by MTT assay. It counts as cell-based, Mesocricetus auratus. To be noted: hamster, bhk-21, 72 h.
A short description of data set [3]: Inhibition of P-gp (unknown origin) expressed in mouse NIH/3T3 cells assessed as reduction in rhodamine 123 efflux at 20 uM incubated for 30 mins by flow cytometric analysis relative to control. In kind it is cell-based. To be noted: Homo sapiens.
The test system of data set [4] is NIH3T3. The experiment in a line: Cytotoxicity against mouse NIH/3T3 cells assessed as reduction in cell viability at 20 uM after 72 hrs by MTT assay. It counts as cell-based. The settings on record: nih3t3, 72 h.
In data set [5] the test system is NIH3T3. Briefly: Cytotoxicity against MDR1-expressing mouse NIH/3T3 cells assessed as growth inhibition at 20 uM after 72 hrs by MTT assay. In kind it is functional, cell-based.
The target of data set [6] is T1, BCRP (ABCG2) (Homo sapiens, UniProt Q9UNQ0).
T1 sequence (Q9UNQ0 whole entry): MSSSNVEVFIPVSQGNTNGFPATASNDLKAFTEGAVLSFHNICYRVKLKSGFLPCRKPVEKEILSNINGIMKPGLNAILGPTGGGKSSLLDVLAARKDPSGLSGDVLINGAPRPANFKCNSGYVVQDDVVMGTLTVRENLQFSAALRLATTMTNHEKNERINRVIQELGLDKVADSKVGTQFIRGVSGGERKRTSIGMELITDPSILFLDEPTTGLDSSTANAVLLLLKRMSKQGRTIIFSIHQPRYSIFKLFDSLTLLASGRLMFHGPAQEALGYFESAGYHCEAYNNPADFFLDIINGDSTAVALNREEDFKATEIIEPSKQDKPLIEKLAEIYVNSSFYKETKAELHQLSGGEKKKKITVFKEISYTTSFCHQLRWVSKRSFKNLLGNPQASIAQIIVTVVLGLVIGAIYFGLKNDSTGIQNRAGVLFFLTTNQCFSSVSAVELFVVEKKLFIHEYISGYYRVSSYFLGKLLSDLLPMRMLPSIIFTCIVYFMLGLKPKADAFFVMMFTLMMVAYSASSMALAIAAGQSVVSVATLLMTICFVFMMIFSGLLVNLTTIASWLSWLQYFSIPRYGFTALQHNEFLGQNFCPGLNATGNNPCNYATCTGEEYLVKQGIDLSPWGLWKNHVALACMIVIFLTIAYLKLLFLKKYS
The experiment in a line: Inhibition of BCRP (unknown origin) expressed in HEK293 cells assessed as reduction in mitoxantrone efflux at 20 uM incubated for 30 mins by flow cytometric analysis relative to control. To be noted: HEK293 cells expressing BCRP, probe mitoxantrone. It counts as cell-based.

The species entered for data set [7] is Homo sapiens. Briefly: Inhibition of P-gp (unknown origin) expressed in mouse NIH/3T3 cells assessed as potentiation of paclitaxel-induced cytotoxicity by measuring decrease in cell viability at 10 to 20 uM after 72 hrs by MTT assay. In kind it is cell-based.
Data set [8] concerns the target MRP1 (Homo sapiens, UniProt P33527). Briefly: Inhibition of MRP1 (unknown origin) expressed in HEK293FlpIN cells assessed as reduction in calcein-AM efflux at 20 uM incubated for 30 mins by flow cytometric analysis relative to control. It counts as cell-based. The settings on record: HEK293FlpIN cells expressing MRP1, probe calcein-AM.
Data set [9] is filed under the species Homo sapiens. The experiment in a line: Inhibition of P-gp (unknown origin) expressed in mouse NIH/3T3 cells assessed as reduction in rhodamine 123 efflux at 10 uM incubated for 30 mins by flow cytometric analysis relative to control. In kind it is cell-based.
For data set [10], the species on record is Homo sapiens. The experiment in a line: Inhibition of P-gp (unknown origin) expressed in mouse NIH/3T3 cells assessed as reduction in rhodamine 123 efflux at 1 uM incubated for 30 mins by flow cytometric analysis relative to control. In kind it is cell-based.
Data set [11] addresses T2, Multidrug resistance-associated protein 1 (Homo sapiens, UniProt P33527). Briefly: Inhibition of MRP1 (unknown origin) expressed in HEK293FlpIN cells assessed as reduction in calcein-AM efflux incubated for 30 mins by flow cytometric analysis. To be noted: for inhibition (INH): human, 0.5 h. In kind it is cell-based.
A short description of data set [12]: Cytotoxicity against HEK293FlpIN cells assessed as reduction in cell viability at 10 to 20 uM after 72 hrs by MTT assay. In kind it is cell-based. The settings on record: human.
Data set [13] addresses T2, Multidrug resistance-associated protein 1. The experiment in a line: Inhibition of MRP1 (unknown origin) expressed in HEK293FlpIN cells assessed as potentiation of vincristine-induced cytotoxicity by measuring decrease in cell growth at 10 to 20 uM after 72 hrs by MTT assay relative to control. In kind it is cell-based. The arrangement: scale not given: the % may be the effect or the level left.

The species named for data set [14] is Homo sapiens. The experiment in a line: Cytotoxicity against MRP1-expressing HEK293FlpIN cells assessed as reduction in cell viability at 10 to 20 uM after 72 hrs by MTT assay. It counts as functional, cell-based.
Data set [15] deals with T2, Multidrug resistance-associated protein 1. The experiment in a line: Inhibition of MRP1 (unknown origin) expressed in BHK21 cells assessed as GSH efflux at 20 uM incubated for 3 hrs measured every 30 secs for 2 mins by GSH reductase enzyme based assay (reference value: 100%). It counts as cell-based. The settings on record: 3 h, 20 µM.
In data set [16] the test system is BHK-21. Briefly: Cytotoxicity against MRP1-expressing BHK21 cells assessed as cell death after 72 hrs by MTT assay. In kind it is functional, cell-based. The settings on record: Mesocricetus auratus, BHK-21, 72 h.
Data set [17] concerns BHK-21. The experiment in a line: Resistance ratio of EC50 for MRP1-expressing BHK21 cells to EC50 for wild type BHK21 cells. It counts as functional, Mesocricetus auratus.
The species entered for data set [18] is Homo sapiens. To be noted: 5 uM.
Description: Inhibition of P-gp (unknown origin) expressed in mouse NIH/3T3 cells assessed as reduction in rhodamine 123 efflux at 5 uM incubated for 30 mins by flow cytometric analysis relative to control
Data set [19] is filed under the species Homo sapiens. Briefly: Inhibition of P-gp (unknown origin) expressed in mouse NIH/3T3 cells assessed as potentiation of paclitaxel-induced cytotoxicity by measuring decrease in cell viability at 10 uM after 72 hrs by MTT assay. In kind it is cell-based.

MRP1, sequence (P33527 whole entry): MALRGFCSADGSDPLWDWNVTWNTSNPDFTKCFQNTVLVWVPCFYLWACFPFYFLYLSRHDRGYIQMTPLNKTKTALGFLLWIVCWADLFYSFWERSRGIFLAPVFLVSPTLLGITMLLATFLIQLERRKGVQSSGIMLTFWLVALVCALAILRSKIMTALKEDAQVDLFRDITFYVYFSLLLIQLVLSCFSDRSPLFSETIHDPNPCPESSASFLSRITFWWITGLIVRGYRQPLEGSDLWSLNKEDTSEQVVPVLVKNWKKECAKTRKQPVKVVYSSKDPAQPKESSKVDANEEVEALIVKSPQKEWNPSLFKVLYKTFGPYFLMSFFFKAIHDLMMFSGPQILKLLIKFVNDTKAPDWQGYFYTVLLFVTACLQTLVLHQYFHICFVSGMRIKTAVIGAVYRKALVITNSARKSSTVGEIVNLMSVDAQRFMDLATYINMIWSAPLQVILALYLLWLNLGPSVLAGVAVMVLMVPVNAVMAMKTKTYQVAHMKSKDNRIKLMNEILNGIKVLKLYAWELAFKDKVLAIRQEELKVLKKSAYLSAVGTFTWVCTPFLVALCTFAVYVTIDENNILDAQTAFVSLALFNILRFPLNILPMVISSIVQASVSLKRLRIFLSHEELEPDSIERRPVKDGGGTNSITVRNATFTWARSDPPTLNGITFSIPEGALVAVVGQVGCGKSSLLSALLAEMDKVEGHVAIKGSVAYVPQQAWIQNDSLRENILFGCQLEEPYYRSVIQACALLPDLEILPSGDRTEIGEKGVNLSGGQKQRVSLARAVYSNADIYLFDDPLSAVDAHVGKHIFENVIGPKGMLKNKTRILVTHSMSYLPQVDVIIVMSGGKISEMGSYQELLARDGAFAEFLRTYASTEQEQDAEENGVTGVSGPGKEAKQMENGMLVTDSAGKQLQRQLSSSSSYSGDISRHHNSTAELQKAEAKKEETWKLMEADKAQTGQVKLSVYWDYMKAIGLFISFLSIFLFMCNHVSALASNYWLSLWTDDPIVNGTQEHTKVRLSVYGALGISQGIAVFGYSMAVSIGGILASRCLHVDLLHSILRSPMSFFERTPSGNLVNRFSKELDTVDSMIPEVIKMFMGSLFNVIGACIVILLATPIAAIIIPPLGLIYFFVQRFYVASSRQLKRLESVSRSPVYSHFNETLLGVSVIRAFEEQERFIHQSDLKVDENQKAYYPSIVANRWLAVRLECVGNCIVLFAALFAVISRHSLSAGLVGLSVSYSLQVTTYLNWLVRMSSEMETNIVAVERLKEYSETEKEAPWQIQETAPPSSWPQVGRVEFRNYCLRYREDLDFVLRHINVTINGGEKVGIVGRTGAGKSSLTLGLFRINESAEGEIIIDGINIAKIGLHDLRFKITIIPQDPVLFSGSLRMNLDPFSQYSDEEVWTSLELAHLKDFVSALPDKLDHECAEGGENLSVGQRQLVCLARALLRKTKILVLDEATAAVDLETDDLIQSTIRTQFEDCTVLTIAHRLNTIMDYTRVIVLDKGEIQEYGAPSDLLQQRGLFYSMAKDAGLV
T2 sequence (P33527 whole entry): as above

With `CC[C@H]1CN(C)[C@H]2Cc3c([nH]c4ccccc34)/C(=N/N=C\c3ccc(C)cc3)C[C@H]1[C@H]2C(=O)OC`, the inhibition of growth at 20 µM in data set [1] fell in the range of 90 to 98%. Besides, the Activity result in [2] and in data set [4] was “Non-Toxic” throughout. Also, in [3], the inhibition came to 86.1%. In addition, the “growth inhibition (GI)” value in data set [5] was “Active”. Further, the inhibition at 0.5 h, 20 µM in data set [6] was 2.4%; in [8], 20.4%. Besides, the inhibition result in [7] is “Active”.
For the molecule `CC[C@@H]1CN(C)[C@H]2Cc3c([nH]c4ccccc34)/C(=N/N=C\c3c[nH]c4ccccc34)C[C@H]1[C@H]2C(=O)OC`, the inhibition of growth at 20 µM in [1] was 90 to 98%. Moreover, the inhibition turned out to be 70% in [9], 102% in data set [3] and 18% in [10]. Besides, the Activity result in data set [2] and in data set [4] was “Non-Toxic” each time. In addition, in data set [5], the “growth inhibition (GI)” value was “Active”. Besides, the results for the inhibition at 0.5 h, 20 µM in data set [6] and in data set [8] were 4.2% and 50.2%, respectively.
For `CC[C@H]1CN(C)[C@H]2Cc3c([nH]c4ccccc34)/C(=N/N=C\c3ccc(O)c(OC)c3)C[C@H]1[C@H]2C(=O)OC`, in data set [1], the inhibition of growth at 20 µM was 90 to 98%. Further, the IC50 in data set [11] was greater than 1 µM. Moreover, in [11], the “inhibition (INH)” value is reported as “Dose-dependent effect”. Further, the Activity result in data set [2] and in data set [4] was “Non-Toxic” throughout. In data set [3], the inhibition was determined as 38.6%. The “growth inhibition (GI)” value in data set [5] is “Active”. The inhibition at 0.5 h, 20 µM is 10.5% in data set [6] and 80.7% in data set [8].
For the molecule `CC[C@@H]1CN(C)[C@H]2Cc3c([nH]c4ccccc34)/C(=N/N=C\c3ccc(O)c(OC)c3)C[C@H]1[C@H]2C(=O)OC`, the “growth inhibition (GI)” value in [1] and in [5] was “Active” in each case. Also, the 50% inhibitory concentration (IC50) in data set [11] is greater than 1 µM. Further, the “inhibition (INH)” value in data set [11] was “Dose-dependent effect”; in data set [15] it was “Not Active”. For the same molecule, the Activity entry is given as “Non-Toxic” in data set [2], “Non-Toxic” in data set [4], “Non-Toxic” in data set [12] and 60% in data set [13]. For the same molecule, the inhibition in data set [3] was 24.3%. For the same molecule, the results for the inhibition at 0.5 h, 20 µM in data set [6] and in data set [8] were 9% and 87.3%, respectively. The inhibition result in data set [14] is “inactive”.
On to `CC[C@@H]1CN(C)[C@H]2Cc3c([nH]c4ccccc34)/C(=N/N=C\c3cccc(Br)c3)C[C@H]1[C@H]2C(=O)OC`, for which the inhibition of growth at 20 µM in data set [1] is greater than 90%. In data set [16], the EC50 was 16.5 µM. The Activity result in data set [2] and in data set [4] was “Non-Toxic” throughout. Further, in [3], the inhibition turned out to be 11.4%. In data set [5], the “growth inhibition (GI)” value was “Active”. The inhibition at 0.5 h, 20 µM in [6] is -2.4%; in data set [8], 12%. Moreover, the “Ratio EC50” value in data set [17] is 0.73. In addition, the “inhibition (INH)” value in data set [15] is given as “Not Active”.
In the case of `COc1cc2c(cc1OC)CN(CCc1ccc(NC(=O)c3cccc4c(=O)c5cccc(OC)c5[nH]c34)cc1)CC2`, the inhibition in data set [18] is 100%.
As to `CC[C@@H]1CN(C)[C@H]2Cc3c([nH]c4ccccc34)/C(=N/N=C\C=C\c3ccccc3)C[C@H]1[C@H]2C(=O)OC`, in data set [1], the inhibition of growth at 20 µM is greater than 90%. Further, the Activity entry in [2] and in data set [4] was “Non-Toxic” throughout. Further, the inhibition in data set [3] came to 26.7%. In addition, the “growth inhibition (GI)” value in data set [5] was “Active”. The inhibition at 0.5 h, 20 µM was -2% in data set [6] and 10% in data set [8]. Further, the “inhibition (INH)” value in data set [15] was “Not Active”.
With `CC[C@@H]1CN(C)[C@H]2Cc3c([nH]c4ccccc34)/C(=N/N=C\c3ccc(C)cc3)C[C@H]1[C@H]2C(=O)OC`, in data set [1], the inhibition of growth at 20 µM is 90 to 98%. In addition, the inhibition result in data set [19] was “Active”. The Activity entry in [2] and in data set [4] was “Non-Toxic” throughout. Moreover, the inhibition in data set [3] was 73.8%. Also, the “growth inhibition (GI)” value in [5] was “Active”. The inhibition at 0.5 h, 20 µM in [6] was 1.7%; in data set [8] it was 8.8%.
For `CC[C@H]1CN(C)[C@H]2Cc3c([nH]c4ccccc34)/C(=N/N=C\c3c[nH]c4ccccc34)C[C@H]1[C@H]2C(=O)OC`, in data set [1], the inhibition of growth at 20 µM fell in the range of 90 to 98%. The inhibition in [9] is 73%; in data set [3], 116%; in data set [10] it was 38%. Besides, the Activity result in data set [2] and in data set [4] was “Non-Toxic” in each case. For the same molecule, in data set [5], the “growth inhibition (GI)” value is “Active”. Also, the inhibition at 0.5 h, 20 µM in [6] is 4.9%; in data set [8], 70.5%.

The values above are taken from ChEMBL document CHEMBL4177736, “Monoterpene indole alkaloid azine derivatives as MDR reversal agents” (Bioorg Med Chem, 2018).
